Here are results for nine compounds from EP2236511A2, “LIGANDS OF ALPHA-ADRENOCEPTORS AND OF DOPAMINE, HISTAMINE, IMIDAZOLINE AND SEROTONIN RECEPTORS AND THE USE THEREOF” (priority 2007, dated 2009).

The term inhibition denotes the drop in the measured response relative to a control, in per cent. As a reminder, the IC50 is the concentration that gives 50% inhibition. As a reminder, the Ki is a measure of affinity in units of concentration, obtained from inhibition or displacement.

Where a name gives a salt, the structure may show the parent alone. Read-outs that look alike come from different tables or passages of the source.

Test [1] deals with T1, adrenergic receptor α1A (Rattus norvegicus, UniProt P43140).
T1 construct: membrane species from rat submaxillary glands (rat of Wistar breed) are prepared; from tissue; host or cells: rat (Wistar) submaxillary gland
T1 sequence (P43140 1-466): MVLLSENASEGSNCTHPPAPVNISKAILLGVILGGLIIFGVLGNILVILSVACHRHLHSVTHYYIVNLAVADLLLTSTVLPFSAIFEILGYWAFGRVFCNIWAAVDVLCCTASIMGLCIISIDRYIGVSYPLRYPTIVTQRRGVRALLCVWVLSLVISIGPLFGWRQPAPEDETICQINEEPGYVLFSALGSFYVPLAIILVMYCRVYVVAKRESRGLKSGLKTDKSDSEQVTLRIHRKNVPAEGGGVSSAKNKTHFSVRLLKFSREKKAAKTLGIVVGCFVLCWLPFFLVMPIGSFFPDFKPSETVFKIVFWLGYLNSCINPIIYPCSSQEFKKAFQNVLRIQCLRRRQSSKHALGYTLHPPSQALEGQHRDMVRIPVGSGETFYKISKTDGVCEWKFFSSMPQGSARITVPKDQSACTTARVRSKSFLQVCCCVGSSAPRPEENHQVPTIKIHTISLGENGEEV
Description: Radioligand binding to adrenergic receptor α1A ([3H] Prazosin, rat submaxillary gland membranes). The following applies: for nH: Receptor α1A. How it is done: Determination of investigated compounds' binding to α1A receptor was carried out according to the method described in [Michel AD, Loury DN and Whiting R1. Identification of a single α1A-adrenoceptor corresponding to the α1A-subtype in rat submaxillary gland. […] Prazosin is used as positive control.

In test [2] the target is T2, human α1D receptor (Homo sapiens, UniProt P25100).
T2 construct: expressed in transfected cells; host or cells: HEK-293
T2 sequence (P25100 1-572): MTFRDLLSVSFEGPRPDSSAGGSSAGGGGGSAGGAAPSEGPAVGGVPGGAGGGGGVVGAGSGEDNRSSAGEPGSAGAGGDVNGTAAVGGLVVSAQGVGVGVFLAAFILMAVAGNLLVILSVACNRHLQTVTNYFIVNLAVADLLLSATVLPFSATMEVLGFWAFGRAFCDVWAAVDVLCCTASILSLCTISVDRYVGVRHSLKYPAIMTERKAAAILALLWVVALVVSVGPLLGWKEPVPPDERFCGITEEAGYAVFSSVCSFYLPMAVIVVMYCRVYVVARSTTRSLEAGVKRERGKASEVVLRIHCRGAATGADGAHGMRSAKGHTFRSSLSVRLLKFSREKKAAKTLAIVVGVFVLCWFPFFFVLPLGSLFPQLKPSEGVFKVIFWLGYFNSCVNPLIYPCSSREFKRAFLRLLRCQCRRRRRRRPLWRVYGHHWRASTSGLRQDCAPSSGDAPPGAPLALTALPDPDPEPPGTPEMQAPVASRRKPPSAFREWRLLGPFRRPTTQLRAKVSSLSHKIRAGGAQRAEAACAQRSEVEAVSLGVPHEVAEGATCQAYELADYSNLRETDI
Put plainly: Radioligand binding to adrenergic receptor α1D ([3H] Prazosin, HEK-293 membranes). The following applies: for nH: Receptor α1D. The source says: 6-C. […] For this purpose sDNA of human α1D receptor is expressed in HEK-293 cells, as it was described in [TL Theroux, TA Esbenshade, RD Peavy and KP Minneman. Coupling efficiencies of human alpha 1-adrenergic receptor subtypes: titration of receptor density and responsiveness with inducible and repressible expression vectors. Mol Pharmacol.; 50: 1376-1387, 1996]. […] Characterization of an α1D-adrenoceptor mediating the contractile response of rat aorta to noradrenaline. […] Prazosin is used as positive control.

The target of test [3] is T3, human α2A receptor (Homo sapiens, UniProt P08913).
T3 construct: expressed in transfected cells; host or cells: Sf9
T3 sequence (P08913 1-465): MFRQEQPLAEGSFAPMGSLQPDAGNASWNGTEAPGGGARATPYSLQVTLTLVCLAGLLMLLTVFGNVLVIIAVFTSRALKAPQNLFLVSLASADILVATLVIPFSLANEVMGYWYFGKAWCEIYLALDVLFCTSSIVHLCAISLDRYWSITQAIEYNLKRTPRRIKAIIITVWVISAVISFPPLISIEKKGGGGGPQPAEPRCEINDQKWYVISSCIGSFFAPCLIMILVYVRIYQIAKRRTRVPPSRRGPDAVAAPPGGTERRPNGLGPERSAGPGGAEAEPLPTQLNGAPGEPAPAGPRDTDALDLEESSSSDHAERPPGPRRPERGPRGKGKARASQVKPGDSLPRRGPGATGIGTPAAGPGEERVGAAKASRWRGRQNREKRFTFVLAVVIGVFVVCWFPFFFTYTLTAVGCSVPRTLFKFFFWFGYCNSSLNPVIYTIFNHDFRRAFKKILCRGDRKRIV
Put plainly: Radioligand binding to adrenergic receptor α2A ([3H] MK-912, Sf9 membranes). The following applies: for nH: Receptor α2A. The source says:
For this purpose sDNA of human α2A receptor is expressed in Sf9 cells, as described in [Uhlen S, Porter AC and Neubig RR. […] J Pharmacol ExpTher. […] J Pharmacol ExpTher. […] Yohimbine is used as positive control.

For test [4], the target named is T4, serotonin receptor 5-HT1B (Rattus norvegicus, UniProt P28564).
T4 construct: membrane species are prepared from rat brains (Wistar) by homogenization of species of rat brain-cortices; from tissue; host or cells: rat (Wistar) brain cortex
T4 sequence (P28564 whole entry): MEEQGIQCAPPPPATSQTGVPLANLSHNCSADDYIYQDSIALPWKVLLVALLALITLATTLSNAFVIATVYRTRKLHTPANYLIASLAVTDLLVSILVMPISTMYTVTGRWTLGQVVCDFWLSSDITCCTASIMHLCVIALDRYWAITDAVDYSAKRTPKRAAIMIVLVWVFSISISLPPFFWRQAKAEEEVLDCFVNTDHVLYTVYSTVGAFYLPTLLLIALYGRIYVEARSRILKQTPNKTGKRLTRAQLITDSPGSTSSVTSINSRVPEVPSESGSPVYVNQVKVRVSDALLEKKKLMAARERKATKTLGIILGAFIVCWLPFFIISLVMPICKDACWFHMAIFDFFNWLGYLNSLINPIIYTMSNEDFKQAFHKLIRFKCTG
Description: Radioligand binding to serotonin receptor 5-HT1B ([125I] cyanopindolol, rat brain cortex membranes). The source says: Serotonin is used as positive control.

Test [5] deals with imidazoline receptor I2. Description: Radioligand binding to imidazoline receptor I2 ([3H] Idazoxan, rat brain membranes).
Description: For this purpose membrane species are prepared from rat (Wistar) brain homogenates by homogenization of them in glass homogenizer with the subsequent separation of plasmatic membranes from cell nuclei, mitochondrias and cell wreckages by differential centrifugation. […] After incubation the samples are filtered in vacuo on glass-microfiber filters G/F (Millipor, USA), filters are washed three times with cold solution of medium and radioactivity is measured by scintillation counter MicroBeta 340 (Perkin Elmer, USA). […] Idazoxan is used as positive control.
The tested compounds' binding to the receptor is determined by their ability to displace the radioligand and expressed in percent of displacement (%I). Values of %I are calculated according to the following equation: %I = (TA-CA)/(TA-NA)*100, [formula] wherein: TA - is the overall radioactivity in the presence of radioligand only, CA - is the radioactivity in the presence of radioligand and tested compound and NA - is a radioactivity in the presence of radioligand and Idazoxan (1 µM).
Test [6] deals with T5, human H2 receptor (Homo sapiens, UniProt P25021).
T5 construct: expressed in transfected cells; host or cells: CHO-K1
T5 sequence (P25021 whole entry): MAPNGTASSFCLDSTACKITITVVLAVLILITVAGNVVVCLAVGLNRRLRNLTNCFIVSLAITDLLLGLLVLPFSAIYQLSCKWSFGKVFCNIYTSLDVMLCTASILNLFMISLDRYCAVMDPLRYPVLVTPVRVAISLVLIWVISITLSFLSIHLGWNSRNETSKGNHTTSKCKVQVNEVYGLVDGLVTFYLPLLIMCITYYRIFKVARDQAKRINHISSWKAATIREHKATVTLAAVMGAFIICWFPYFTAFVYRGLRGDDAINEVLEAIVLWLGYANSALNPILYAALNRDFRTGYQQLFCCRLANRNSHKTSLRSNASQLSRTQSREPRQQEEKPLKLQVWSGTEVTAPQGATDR
Put plainly: Radioligand binding to histamine receptor H2 ([125I] Aminopotentidine, CHO-K1 membranes). The following applies: for inhibition at 10 µM: read-out: Histamine receptors, % inhibition H2. The source says:
Proc Natl Acad Sci USA. 87(5): 1658-1662, 1990]. […] Proc Natl Acad Sci USA. 87(5): 1658-1662, 1990]. […] Tiotidine is used as positive control.

For test [7], the target named is T6, recombinant human 5-HT2B receptor (Homo sapiens, UniProt P41595).
T6 construct: expressed in transfected cells; host or cells: CHO-K1
T6 sequence (P41595 whole entry): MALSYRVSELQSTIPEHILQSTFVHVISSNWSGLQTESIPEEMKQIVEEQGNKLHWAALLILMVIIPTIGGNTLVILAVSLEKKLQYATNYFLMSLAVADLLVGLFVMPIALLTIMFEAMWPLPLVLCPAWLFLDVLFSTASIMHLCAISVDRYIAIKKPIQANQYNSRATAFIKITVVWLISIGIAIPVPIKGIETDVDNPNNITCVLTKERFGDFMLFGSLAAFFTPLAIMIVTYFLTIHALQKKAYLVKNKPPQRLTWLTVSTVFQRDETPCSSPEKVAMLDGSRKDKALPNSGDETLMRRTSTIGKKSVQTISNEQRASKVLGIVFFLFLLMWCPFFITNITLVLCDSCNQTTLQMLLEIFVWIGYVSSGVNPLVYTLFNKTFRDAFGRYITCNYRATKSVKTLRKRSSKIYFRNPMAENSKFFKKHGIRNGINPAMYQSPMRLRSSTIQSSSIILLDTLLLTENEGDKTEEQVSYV
Put plainly: Radioligand binding to serotonin receptor 5-HT2B ([3H] Lysergic acid diethylamide, CHO-K1 membranes).
Description: For this purpose membrane species are prepared from CHO-K1 cells comprising recombinant human 5-HT2B receptor by homogenization of recombinant cells in glass homogenizer with the subsequent separation of plasmatic membranes from cell nuclei, mitochondrias and cell wreckages by differential centrifugation. […] After incubation the samples are filtered in vacuo on glass-microfiber filters G/F (Millipor, USA), filters are washed three times with cold solution of medium and radioactivity is measured by scintillation counter MicroBeta 340 (Perkin Elmer, USA). […] Ketanserin is used as positive control. The tested compounds' binding to the receptor is determined by their ability to displace the radioligand and is expressed in percent of displacement (%I). Values of %I are calculated according to the following equation: %I = (TA-CA)/(TA-NA)*100, [formula] wherein: TA - is the overall radioactivity in the presence of radioligand only, CA - is the radioactivity in the presence of radioligand and tested compound and NA - is the radioactivity in the presence of radioligand and Serotonin (10 µM).

[8] abbreviates: read-out: α-Adrenoceptor, % inhibition α1D.
[9] abbreviates: read-out: α-Adrenoceptor, % inhibition α2A.
Where [10] appears, read: read-out: α-Adrenoceptor, % inhibition α1A.

For `Cc1ccc2c(c1)c1c(n2CCc2ccccn2)CCCN(C)C1` [1.2.2(2-2)], the “α-Adrenoceptor, % inhibition α1A” value in test [1] (10 µM ligand) is reported as 64%. For the same compound, in test [2] (10 µM ligand), the “α-Adrenoceptor, % inhibition α1D” value was 63%. Besides, the “α-Adrenoceptor, % inhibition α2A” value in test [3] (10 µM ligand) is on record as 90%. The same compound gave a 5-HT1B % inhibition in test [4] (10 µM ligand) of 6%. The “% inhibition” value in test [5] (10 µM ligand) is 80%.

As to `Cc1ccc2c(c1)[C@@H]1CN(C)CCC[C@@H]1N2CCc1ccc(C)nc1` (relative stereo) [1.6.1(2)·3HCl], the inhibition at 10 µM in test [2] (setting [8]) was 87%; in test [3] (setting [9]), 82%; in test [6], 66%; in test [4] (read-out: 5-HT1B % inhibition) it was -6%; in test [7] (read-out: 5-HT2B % inhibition) it was -2%. In addition, the “% inhibition” value in test [5] (10 µM ligand) worked out at 80%.

In the case of `Cc1ccc2c(c1)c1c(n2CCc2ccccc2)CCN(C)C1` [1.1.2(1-2)·HCl, 2,8-dimethyl-5-phenethyl-1,2,3,4-tetrahydro-1H-pyrido[4,3-b]indole hydrochloride], the inhibition at 10 µM worked out at 99% in test [1] (setting [10]); 102% in test [2] (setting [8]); 95% in test [3] (setting [9]); 102% in test [6]; 82% in test [4] (read-out: 5-HT1B % inhibition); 100% in test [7] (read-out: 5-HT2B % inhibition). The nH in test [7] (5-HT2B) is on record as 0,868. Besides, in test [5], the 50% inhibitory concentration (IC50) amounted to 268 nM. The compound also returned a Ki in test [5] of 179 nM. For the same compound, the “% inhibition” value in test [5] (10 µM ligand) was found to be 93%.

Regarding `Cc1ccc2c(c1)[C@@H]1CN(C)CCC[C@@H]1N2CCc1cccnc1` (relative stereo) [1.6.1(1)·3HCl], the inhibition at 10 µM in test [1] (setting [10]) was 90%; in test [2] (setting [8]), 90%; in test [3] (setting [9]) it was 84%; in test [6] it was 48%. Moreover, in test [5] (10 µM ligand), the “% inhibition” value is 80%.

`Cc1ccc(CCn2c3c(c4cc(C)ccc42)CN(C)CC3)cc1` [1.1.2(1-3), 2,8-dimethyl-5-[2-(4-methylphenyl)-ethyl]-1,2,3,4-tetrahydro-1H-pyrido[4,3-b]indole]: the results for the nH in test [1], in test [2] and in test [3] were 1,26, 1,21 and 1.12, respectively. In test [4] (10 µM ligand), this compound had a 5-HT1B % inhibition of 59%. The 5-HT2B % inhibition in test [7] (10 µM ligand) is 95%. The “% inhibition” value in test [5] (10 µM ligand) was 93%.

In the case of `CN1CCc2c(c3ccccc3n2Cc2ccccc2)C1` [1.9(1)·1/2NDSA, bis-(5-benzyl-2-methyl-2,3,4,5-tetrahydro-1H-pyrido[4,3-b]indole) naphthalene-1,5-disulfonate], the nH in test [1] is reported as 1,08; in test [2] it was 1,05; in test [3], 1,13; in test [7] (5-HT2B), 0.552. For the same compound, the inhibition at 1 µM in test [1] (setting [10]) is 67%. The inhibition at 3 µM in test [2] (setting [8]) came out at 70%. In addition, the inhibition at 0.3 µM was 73% in test [3] (setting [9]) and 4% in test [4] (read-out: 5-HT1B % inhibition). In addition, in test [6] (10 µM ligand), the “Histamine receptors, % inhibition H2” value is recorded as 97%. For the same compound, the values for the IC50 in test [7] (5-HT2B) and in test [5] were 31.4 nM and 169 nM, respectively. The results for the Ki in test [7] (5-HT2B) and in test [5] were 20 nM and 110 nM, respectively. In test [5] (0.3 µM ligand), the “% inhibition” value is on record as 87(0.3 µM) %.

For `Cc1ccc2c(c1)c1c(n2CCc2ccc(C)nc2)CCN(C)C1` [1.1.2(4-2)·2HCl], the inhibition at 10 µM in test [1] (10 µM ligand, read-out: α-Adrenoceptor, % inhibition α1A) was 97%; in test [3] (10 µM ligand, read-out: α-Adrenoceptor, % inhibition α2A), 95%; in test [4] (10 µM ligand, read-out: 5-HT1B % inhibition) it was 19%; in test [7] (10 µM ligand, read-out: 5-HT2B % inhibition), 47%. The nH worked out at 1.12 in test [1] and 0.828 in test [3]. Also, in test [5], the IC50 came out at 310 nM. Also, in test [5], the affinity, expressed as Ki, was 210 nM. Moreover, the “% inhibition” value in test [5] (10 µM ligand) worked out at 98%.

Consider `CN1CCc2c(c3ccccc3n2Cc2ccccc2)C1.Cl` [1.9(1)·HCl, 5-benzyl-2-methyl-2,3,4,5-tetrahydro-1H-pyrido[4,3-b]indole hydrochloride], for which the inhibition at 10 µM in test [1] (setting [10]) worked out at 70%; in test [3] (setting [9]), 100%; in test [6] it was 97%; in test [4] (read-out: 5-HT1B % inhibition), 13%; in test [7] (read-out: 5-HT2B % inhibition, 10 µM ligand), 99%. Also, the nH in test [7] (5-HT2B) was 0.836. In addition, the “% inhibition” value in test [5] (3 µM ligand) is recorded as 75 (3 µM) %. Moreover, the IC50 in test [5] (hydrochloride) is 994 nM. In addition, the Ki in test [5] (hydrochloride) was 662 nM.

`Cc1ccc2c(c1)c1c(n2CCc2ccccn2)CCN(C)C1` [1.1.2(2-3)·2HCl]: the inhibition at 10 µM was determined as 81% in test [1] (setting [10]), 92% in test [2] (setting [8]), 93% in test [3] (setting [9]) and 82% in test [6]. Besides, the inhibition at 1 µM worked out at 65% in test [4] (read-out: 5-HT1B % inhibition) and 89% in test [7] (read-out: 5-HT2B % inhibition). The nH in test [7] (5-HT2B) amounted to 0.913. Also, the “% inhibition” value in test [5] (10 µM ligand) amounted to 88%.
